Assay [1] has as its system MCF10A, MCF7, HCT116, and HeLa cells. Description: Cell viability after 6 days on cell panel (FIG. 8). In kind it is cell-based, human. The conditions noted are these: FIG. 8, 6 days viability; MCF7 colonies, cell cycle. As to the method: FIG. 8. […] A, MCF10A (▪), MCF7 (♦), HCT116 (▴), and HeLa (upsidedown triangle) cells were plated in the absence or presence of L82 (left), L67 (middle), and L189 (right). After 6 days, cell viability was measured and is expressed as a percentage of the value obtained with untreated cells. B, MCF7 cells were plated out in the absence or presence of L82 (top) and L67 (bottom) at the indicated concentrations. After 2 weeks, colonies were stained with crystal violet. C, after serum starvation for 4 days, MCF 7 cells were returned to serum-containing media either without (▪) or with 50 μmol/L of L82 (●). The cell cycle distribution at various time intervals was determined by fluorescence-activated cell sorting. D, asynchronous populations of MCF cells were either untreated (top) or treated with L82 at 10 μmol/L (middle) and 50 μmol/L (bottom). After 3 days, tubulin and DNA were visualized by fluorescence microscopy (bars, […]).

A further assay has as its system MCF10A cells. The assay can be described thus: Screen for potentiation of DNA damaging agents (MMS, camptothecin, cis-platinum, 3 aminobenzamide, ionizing radiation). In kind it is cell-based, human. The note with it: for IC50 ratios of non- and 3-AB treated cells MCF10A: compound alone vs combination with 3-AB (2 mM); for IC50 ratios of non- and 3-AB treated cells MCF10A / MMS: Ratios of IC50 MCF10A: 1 = no sensitization; for Radiosensitizers: IC50 ratios MCF10A: ionizing radiation; for MMS: Ratios of IC50 MCF10A: compound alone vs combination with MMS (100 μM); for % growth inhibition MCF10A [2 Gy] 5-15 uM: with 2 Gy ionizing radiation, tick mark only. The method, boiled down: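 HCT116 colon cancer and MCF10A breast epithelial cells received compounds at 15 μM or 50 μM one day after plating; for ionizing radiation, cells were pre-incubated 1 h with 50 μM compound before 2 Gy. After 3 days, cells were lysed with Igepal CA-630 plus SYBR green, and DNA fluorescence served as the proliferation read-out.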

Assay [2] relates to Human DNA ligases I, III and IV and T4 DNA ligase. The assay can be described thus: Step 2 of the ligation reaction: DNA-AMP (DNA-adenylate) formation on non-ligatable nick. In kind it is biochemical. As for the experimental part: To analyze step 2 of the ligation reaction, labeled ligase-AMP intermediates (10 pmol (22)) were incubated overnight at 25° C. with an unlabeled nonligatable version (dideoxy residue at the 3′-terminus of the nick) of the DNA oligonucleotide substrate (10 pmol), either in the presence or absence of the ligase inhibitors (100 μmol/L).
Since the final two steps of the ligation reaction involve interactions with DNA, we examined the effects of the ligase inhibitors on the second (FIG. 3B) (The labeled ligase-adenylate form of human DNA ligases I, III and IV and T4 DNA ligase were incubated with a linear DNA substrate containing a single non-ligatable nick in the absence or presence of compounds 67, 82 and 189 (100 μM). After separation by denaturing gel electrophoresis, the labeled DNA-AMP complex was detected by phosphorimaging (26)) and third steps (FIG. 3C) of the ligation reaction using established assays (25,26) (Non-adenylated human DNA ligases I, III and IV and T4 DNA ligase were incubated with labeled DNA-AMP in the absence or presence of compounds 67, 82 and 189 (100 μM). After separation by denaturing gel electrophoresis, labeled ligated DNA was detected by phosphorimaging (25)).

Another assay concerns MCF7 cells. Description: Colony forming (survival) assay. In kind it is cell-based, human. As for the experimental part: For survival assays, cells were plated in 6 well plates and grown either in the absence or presence of ligase inhibitors. Where indicated, either MMS (0-50 μM) was added to the medium or the cells were irradiated in a Cs-137 irradiator (0-2.5 Gy). After two weeks, colonies were stained with crystal violet (Sigma) and then counted.
To confirm that the DNA ligase inhibitors directly kill cells and potentiate cell killing by DNA damaging agents, we performed colony forming assays.
Different concentrations of Compound 184 were added to asynchronous subconfluent populations of HCT116, MCF7 and MCF10A cells. Colonies were counted after two weeks. (FIG. 6A).
Different concentrations of Compound 67 were added to asynchronous subconfluent populations of HCT116, MCF7 and MCF10A cells. After 1 hour, cultures were irradiated with 2 gray of ionizing radiation. Different concentrations of Compound 67 were added to asynchronous subconfluent populations of HCT116 and MCF10A cells in the absence or presence of MMS (50 μM). Colonies were counted after two weeks. (FIG. 6D).

For the molecule `O=c1[nH]ncc(N/N=C\c2ccc(O)c([N+](=O)[O-])c2)c1Cl` [Compound 82], the “effect on cell viability / growth, in words” value in assay [1] is reported as “cytostatic effect”.
With `O=C(O)CSc1cc(Cl)c2nonc2c1[N+](=O)[O-]` [Compound 64], in the assay with MCF10A cells, the “IC50 ratios of non- and 3-AB treated cells MCF10A” value is reported as 2; the “Radiosensitizers: IC50 ratios MCF10A” value amounted to 1.2.
For `O=C(Cn1cnc([N+](=O)[O-])n1)N/N=C/c1ccc(O)cc1O` [Compound 151], in the assay with MCF10A cells, the “MMS: Ratios of IC50 MCF10A” value came out at 1.8, the “Radiosensitizers: IC50 ratios MCF10A” value came to 1 and the “% growth inhibition MCF10A [2 Gy] 5-15 uM” value was “✓”.
As for `Nc1nc(S)nc(O)c1/N=C/c1ccccc1` [Compound 189], in assay [2] (100 μM, FIG. 3B), the “inhibition of step 2 of the ligation reaction” value was “inhibits step 2”. For the same molecule, the “Mechanism: ligation step inhibited (2nd step)” value in assay [2] (Table 5A) was 2nd.
Turning to `Cc1c(Br)cc(NCC(=O)N/N=C\c2cc([N+](=O)[O-])ccc2O)cc1Br` [Compound 67], in the assay on MCF10A cells, the “IC50 ratios of non- and 3-AB treated cells MCF10A” value turned out to be 1.7; the “MMS: Ratios of IC50 MCF10A” value was 1.2; the “% growth inhibition MCF10A [2 Gy] 5-15 uM” value is given as “✓”. Besides, in the assay on MCF7 cells (MCF7, 2 gray, FIG. 6D), the “potentiation of killing by ionizing radiation” value was “potentiates”. In the assay on MCF7 cells (MCF7, MMS, FIG. 6D), the “potentiation of killing by MMS” value was “potentiates”.
`CS(=O)(=O)NNC(=O)C(=O)NNc1ccccc1` [Compound 184]: in the assay on MCF7 cells (MCF7, compound alone, compared with MCF10A, FIG. 6A), the “cell killing (colony formation)” value is “more effective at killing”.
`O=C(c1ccc(O)cc1)c1ccccc1O` [Compound 200]: in the assay on MCF10A cells, the “IC50 ratios of non- and 3-AB treated cells MCF10A” value was “ID (1.2)”; the “MMS: Ratios of IC50 MCF10A” value was “ID (1)”.
Regarding `O=C1Nc2ccccc2Oc2cc([N+](=O)[O-])cc([N+](=O)[O-])c21` [Compound 180], the “MMS: Ratios of IC50 MCF10A” value in the assay with MCF10A cells was found to be 1.

(Values after patent US9757375B2, “Compounds that inhibit human DNA ligases and methods of treating cancer” (University of Maryland, Baltimore, priority 2007, dated 2017).)
